Data published in PMC4140852 (PLoS Pathogens, 2014).

Target: T1, APRc (rAPRc activation product, rAPRc105-231) (Rickettsia conorii, UniProt Q92FY8)
T1 construct: gene RC1339
Assay type: biochemical

T1 sequence (Q92FY8 105-231 limits assumed): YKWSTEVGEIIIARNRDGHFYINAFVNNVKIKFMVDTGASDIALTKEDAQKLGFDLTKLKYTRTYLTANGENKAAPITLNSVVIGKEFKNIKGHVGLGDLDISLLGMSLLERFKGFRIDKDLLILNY

With CC(C)(C)NC(=O)[C@@H]1CN(Cc2cccnc2)CCN1C[C@@H](O)C[C@@H](Cc1ccccc1)C(=O)N[C@H]1c2ccccc2C[C@H]1O [indinavir] the “% inhibition at 0.25 mM” value was “incubation with indinavir resulted in a near complete inhibition of APRc”.
